Results: PMC5049785, “Characterization of Novel Antimalarial Compound ACT-451840: Preclinical Assessment of Activity and Dose–Efficacy Modeling” (PLoS Medicine, 2016)

Columns and labels:
[1] = Blood concentrations in P. berghei infected mice; format: in vivo; settings: 1, 4, 24 h after first dose of triple-dose regimen
Description: To assess the PK parameters in infected mice, blood samples were taken at 1, 4, and 24 h after the first dose of a triple-dose regimen in the P. berghei efficacy studies. The employed doses were 15 or 30 mg/kg bis in die (b.i.d.), and 30, 50, 100, 300 mg/kg quaque die (q.d.) (n = 3/timepoint and dose).

[2] = test system: P. falciparum oocysts in Anopheles stephensi; experiment: Standard membrane feeding assay, direct mode; format: cell-based, Plasmodium falciparum; settings: compound added at the time of mosquito feeding, concentrations up to 1 μM
Description: ACT-451840 was tested in the standard membrane feeding assay at TropIQ (Nijmegen, The Netherlands) in two modes, as previously described. In the direct mode, the compound was directly added to a bloodmeal containing mature stage V gametocytes that was fed to Anopheles stephensi mosquitoes. […] Seven days after the bloodmeal, the number of oocysts in the midgut was determined by microscopy for both modes. […] Vehicle control (0.1% DMSO) and positive control (10 μM dihydroartemisinin) were included. Twenty mosquitoes were dissected per sample, and oocyst load was analyzed per mosquito.

[3] = test system: P. falciparum D6 (Sierra Leone); experiment: [3H]-hypoxanthine incorporation assay, D6; format: cell-based, Plasmodium falciparum; settings: read-out: 50% inhibitory concentration (IC50); D6, resistance MFQ; mean ± SD
[4] = test system: P. falciparum V1/S (Vietnam); experiment: [3H]-hypoxanthine incorporation assay, V1/S; format: cell-based, Plasmodium falciparum; settings: read-out: 50% inhibitory concentration (IC50); V1/S, resistance CQ, SUL, PYR, CYC; mean ± SD
[5] = test system: synchronous cultures of P. falciparum NF54; experiment: In vitro time-, stage- and concentration-dependent effects; format: cell-based, Plasmodium falciparum; settings: 6 or 24 h exposure
Description: In vitro time-, stage-, and concentration-dependent effects were assessed using pyrimethamine as a stage-specific and slow-acting control, as described elsewhere.

[6] = test system: P. falciparum strain 3D7 (MR4); experiment: In vitro parasite reduction ratio (PRR) assay; format: cell-based, Plasmodium falciparum
Description: In vitro PRR testing was conducted at GSK (Tres Cantos, Madrid, Spain) as previously described. The assay used the limiting dilution technique to quantify the number of parasites that remained viable after drug treatment. […] Parasites were treated for 120 h. Drug in culture medium was renewed daily over the entire treatment period. […] To quantify the number of viable parasites after treatment, 3-fold serial dilutions were used with the above mentioned samples after removing the drug. Four independent serial dilutions were performed with each sample to correct experimental variations. The number of viable parasites was determined after 21 and 28 d by counting the number of wells with growth using [^3H]-hypoxanthine incorporation. The number of viable parasites was back-calculated by using the formula X^n-1 where n is the number of wells able to render growth and X the dilution factor (when n = 0, number of viable parasites is estimated as zero). […] The parasite clearance time to kill 99.9% of the initial population was determined using a regression calculated on the log-linear phase of the parasite reduction, taking into account the lag phase.

[7] = test system: P. berghei; experiment: In vitro (ex vivo) activity against P. berghei, [3H]-hypoxanthine incorporation; format: cell-based, Plasmodium berghei; settings: 16 h exposure + 8 h incorporation
Description: In vitro (ex vivo) activity against the mouse malaria parasite P. berghei was measured at the Swiss TPH as described elsewhere, with the following modifications: heparinised blood of P. berghei infected and uninfected control female NMRI mice (final hematocrit of 2.5%) was used and exposed to compounds for 16 h followed by 8 h of [^3H]-hypoxanthine incorporation.

[8] = Reverse mutation test in vitro
[9] = Pharmacokinetic study in healthy mice; format: in vivo, female NMRI mice
Description: Female NMRI mice were purchased from Harlan (Horst, The Netherlands) by Actelion Pharmaceuticals. ACT-451840 was formulated as a solution in corn oil and dosed via oral gavage at 10, 100, and 300 mg/kg. Serial blood samples were collected at 0.5, 2, 4, and 8 h after dosing from two mice and after 1, 3, 6, and 24 h from two other mice, creating composite PK profiles from, in total, four mice per dose. Blood samples were analyzed using liquid chromatography coupled to tandem mass spectrometry (LC-MS/MS) after protein precipitation. PK parameters were estimated using non-compartmental analysis from the composite profiles.

[10] = test system: P. falciparum NF54 male gametocytes; experiment: P. falciparum dual gamete formation assay, male; format: cell-based, Plasmodium falciparum; settings: 24 h incubation; ± SD; read-out: IC50 male gamete formation (exflagellation centers)
Description: Mature P. falciparum NF54 gametocytes were cultured at Imperial College London (London, United Kingdom), as previously described. […] Male gamete formation was quantified by computer-aided automated identification and counting of exflagellation centers. Female gamete formation was visualized by live immunofluorescence with a Cy3-conjugated antibody specific for Pfs25—a female gamete expressed surface protein. […] IC50 values were calculated using GraphPad Prism version 6 using the logarithmic versus normalized response (variable slope) function (Graphpad Software, San Diego, US).

[11] = test system: P. falciparum K1 (Thailand); experiment: [3H]-hypoxanthine incorporation assay, K1; format: cell-based, Plasmodium falciparum; settings: read-out: 50% inhibitory concentration (IC50); K1, resistance CQ, SUL, PYR, CYC; mean ± SD
[12] = test system: P. berghei; settings: ± coefficient of variation
Description: A single compartment PK model with saturable absorption was obtained using naïve pooling to fit simultaneously the observed blood concentration time data from the PK studies done at a dose of 10, 100, and 300 mg/kg, as described above. Using this model, blood concentration time profiles were predicted for all dosing regimens used in the mouse antimalarial efficacy studies. Cmax, AUC, and time above a threshold concentration were subsequently calculated using non-compartmental analysis. PD modeling was done using an Emax model using Cmax, AUC, or time above a threshold concentration versus survival or antimalarial activity. All modeling and PK analyses were done using Phoenix Winonlin 6.3 (Cetara, Princeton, US).

[13] = Safety pharmacology in dogs; format: in vivo; settings: dogs dosed up to 500 mg/kg
[14] = single oral 10 mg/kg in corn oil
[15] = single oral 100 mg/kg in corn oil
[16] = single oral 300 mg/kg in corn oil

Compound: CC(=O)N1CCN(c2ccc(CN(C(=O)/C=C/c3ccc(C(C)(C)C)cc3)[C@@H](Cc3ccccc3)C(=O)N3CCN(Cc4ccc(C#N)cc4)CC3)cc2)CC1 [ACT-451840]
- blood concentration in infected mice compared to healthy mice [1]: No significant difference
- activity against P. falciparum oocysts [2]: did not show any activity
- IC50 [3]: 500 ± 100 pM
- IC50 [4]: 300 pM
- stage specificity of growth reduction [5]: affected all asexual erythrocytic stages equally
- lag phase in the killing curve ([6]; 10 x IC50): without lag phase
- parasite clearance time to kill 99.9% of the initial population ([6]; 10 x IC50): 28 h
- log PRR ([6]; 10 x IC50, decrease in viable parasites over 48 h): 4.4
- PRR ([6]; asexual blood stage forms): > 4 log per parasite cycle
- IC50 [7]: 13500 pM
- genotoxicity, reverse mutation test [8]: not genotoxic
- AUC (ng/mL*h) [9, 14]: 1,780 ± 18%
- Cmax (ng/mL) [9, 14]: 415 ± 20%
- Tmax [9, 14]: 2.5 h
- AUC (ng/mL*h) [9, 15]: 32,900 ± 36%
- Cmax (ng/mL) [9, 15]: 3,910 ± 20%
- Tmax [9, 15]: 6 h
- AUC (ng/mL*h) [9, 16]: 60,900 ± 33%
- Cmax (ng/mL) [9, 16]: 7,010 ± 32%
- Tmax [9, 16]: 7 h
- IC50 [10]: 5890 pM
- IC50 [11]: 300 pM
- Antimalarial activity EX50, X = AUC ([12]; Emax model): 8,100 (ng*h/mL) ± 35%
- Antimalarial activity EX50, X = Cmax ([12]; Emax model): 930 (ng/mL) ± 36%
- Antimalarial activity EX50, X = time above threshold ([12]; Emax model): 0.14 (h) ± 3,000%
- Survival E0, model versus AUC ([12]; Emax model): 5.1 (day) ± 17%
- Survival E0, model versus Cmax ([12]; Emax model): 4 (day) ± 54%
- Survival E0, model versus time above threshold ([12]; Emax model): 5.9 (day) ± 12%
- Survival EX50, X = AUC ([12]; Emax model): 170,000 (ng*h/mL) ± 16%
- Survival EX50, X = Cmax ([12]; Emax model): 15,000 (ng/mL) ± 170%
- Survival EX50, X = time above threshold ([12]; Emax model): 150 (h) ± 52%
- Antimalarial activity Emax, model versus AUC [12]: 110 (%) ± 8.3%
- Antimalarial activity Emax, model versus Cmax [12]: 130 (%) ± 11%
- Antimalarial activity Emax, model versus time above threshold [12]: 100 (%) ± 38%
- Survival Emax, model versus AUC [12]: 35 (day) ± 35%
- Survival Emax, model versus Cmax [12]: 62 (day) ± 120%
- Survival Emax, model versus time above threshold [12]: 70 (day) ± 71%
- effect on cardiovascular parameters [13]: no effect
